Laboratory results reported in US20070254055A1, “Therapeutic Avenanthramide Compounds” (TRUSTEES OF TUFTS COLLEGE, priority 2003, published 2007).

Tested on: COX-2
Assay: TNF-α induced COX-2 expression in HT29 cells, Western blot
Type: cell-based, human
Settings: 25 μM
Protocol: Western Blot Assay: HT-29 cells were seeded into 60 mm culture dishes and cultured to 70% confluence. Medium was changed from 10% to 1% FBS medium to minimize the effects of other growth-promoting substances normally contained in serum. For COX-2 expression studies, the cells were pre-treated with different concentrations of Avns oat extract and CH3-Avn-C for 1 hr followed by stimulation with 40 ng/ml of TNF-α for 23 hr. The medium was collected and kept at −80° C. for further analyzing prostaglandin E2 (PGE2) production. For analyzing the NFkB phosphorylation, the cells were pre-treated with different concentrations of Avns oat extract and CH3-Avn-C for 23 hr followed by stimulation with 40 ng/ml of TNF-α for 20 min. For determining the COX1 expression level, the cells were treated with different concentrations of Avns oat extract and CH3-Avn-C for 24 hr. To get the whole cell lysate for western, cells were harvested in 2× protein sample buffer by scraping the cells. […] Proteins bound to the primary antibodies were detected by the enhanced chemiluminescence (ECL) detection system and quantified by densitometric scanning.
Effect of Avns on COX-2 expression: HT29 cells express a low basal level of COX-2 protein. […] The expression of COX2 was measured by Western blotting. β-Actin expression level was used as a loading control. […]

Structure (SMILES): CS(=O)(=O)Nc1ccc([N+](=O)[O-])cc1OC1CCCCC1 [NS398]
- inhibition of COX2 expression: 50%
